Patent US20200032249A1, “LABELING, ISOLATION, & ANALYSIS OF RNA FROM RARE CELL POPULATIONS” (priority 2017, published 2020)

Test system: CD/UPRT-expressing MDA231 cells
Test: expression of representative human genes in mouse lung lysates by RT-PCR
Format: in vivo
Details: 250 mg/kg, 8 h, mouse lungs
Protocol: FIG. 5 a-e. Flura-tagging enables transcriptional profiling from micrometastatic lung xenografts. FIG. 5a—Representative H & E stained sections of mouse lungs harboring micrometastases (arrows) used in Flura-tagging experiments. […] Scale bar=2 mm (top), 100 μM (bottom). FIG. 5b—Representative micrometastasis in the context of lung vasculature. MDA231 cells were stained with anti-GFP antibody, blood vessels with anti-CD31 antibody and nuclei (DNA) with Hoechst 33258. Scale bar=50 μM. FIG. 5c—Quantification of the number of cells per micrometastasis per tissue section in engrafted lungs of mice used in the Flura-tagging experiments. The number of nuclei in individual micrometastases in lung sections from 16 separate mice were counted. […] Expression of the indicated representative genes in the lung lysates containing control MDA231 cells or MDA231 cells expressing CD/UPRT and treated with 250 mg/kg 5-FC for 8 h, was measured by RT-PCR using human specific primers (n=3). […] FIG. 5e—Flow cytometric quantification of the number of RFP+ MDA231 cells in mouse lung in the Flura-tagging experiments. […]
Mouse experiments were performed following the protocols approved by the MSKCC Institutional Animal Care and Use Committee (IACUC). […] Proliferation of injected cancer cells were quantified using bioluminescence imaging following retroorbital injection of luciferin. […]

Compound: Nc1nc(=O)[nH]cc1F [5-FC, 5-fluorocytosine]
- range of expression of representative human genes vs control MDA231 cells: ≤ 2 fold
